Measurements from patent US8785374B2, “Inhibitors of mammalian tight junction opening” (Alba Therapeutics Corporation, priority 2007, dated 2014).
No end group written: not given here.

Key:
[1] = test system: CaCo2 monolayers (tight junctions); assay: Inhibition of agonist-induced Lucifer Yellow flux through CaCo2 monolayers; settings: inhibition of the increase in Lucifer Yellow permeability induced by SEQ ID NO:70 (FCIGRL); CaCo2 monolayers
Excerpt: (§1) Measurement of the Inhibition of the Decrease in Trans Epithelial Electric Resistance (TEER) and Epithelial Flux of a Fluorescent Marker Lucifer Yellow
(§2) Antagonists of tight junctions can be identified by their ability to prevent or decrease the enhancement of the flux of compounds (e.g. Lucifer Yellow) through the monolayer induced by agonists of tight junctions (e.g., SEQ ID NO: 70). Antagonists of tight junctions can also be identified by their ability to prevent the decrease in TEER induced by agonists of tight junctions (e.g., SEQ ID NO: 70).
(§3) Tight junction antagonists can be identified using the following method:
(§4) Prepare Modified Hank's Balanced Salt Solution (MHBSS) by obtaining IL bottle of HBSS removing 10 ml of HBSS and replacing it with 10 ml HEPES buffer pH 7.0. Adjust pH to 7.4±0.1 using concentrated NaOH (10N).
(§5) Remove Caco-2 cells from incubator, grown on 12-well, […], polycarbonate Transwell® filters (Corning) and record passage number, date cells seeded and age in days.
(§6) Aspirate cell culture medium from both the apical (AP) and basolateral (BL) compartments, replacing with 0.5 ml and 1.5 ml of MHBSS, respectively. Incubate cells at 37° C. for 30 minutes.
(§7) Prepare a stock solution of the Antagonist Pretreatment Solution by dissolving the appropriate amount of antagonist in MHBSS. Vortex or sonicate the solution until it is clear then adjust pH to 7.4±0.1 using 1N NaOH. Preincubate each filter for 30 min with these solutions at 37° C. and 50 RPM.
(§8) Prepare stock solutions of Antagonist Treatment Solution by dissolving appropriate amounts of antagonist and agonist (for example, a peptide agonist such as a peptide having the sequence FCIGRL (SEQ ID NO: 70)) in 7.5 mM Lucifer Yellow solution in MHBSS. Vortex or sonicate the solution until it is clear then adjust pH to 7.4±0.1 using 1N NaOH.
(§9) Aspirate Antagonist Pretreatment Solution from the apical compartment of each filter (n=3 per condition) and replace with 0.5 ml of control and test solutions.
(§10) Place all plates into incubator set at 37° C. (±0.2), 50 RPM (±5) for a total of 180 minutes.
At t=60, 120 and 180 minutes remove 100 μl from each basolateral compartment and place it in a 96-well plate for Lucifer Yellow analysis, replace with 100 μl of HBSS.
Make a Lucifer Yellow standard curve with the following dilutions (7500 μM, 3750 μM, 750 μM, 375 μM, 75 μM, 37.5 μM, 7.5 μM, 3.75 μM, 0.75 μM) and pipette 100 μL of each into a 96-well plate except for the first three standards mentioned above which require a 1:10 dilution prior to transferring to the 96-well plate.
At t=0 make 1:10 dilutions of each starting Antagonist Treatment Solution mentioned above and pipette 100 μL of each into a 96-well plate.
At t=180 make 1:10 dilutions of Antagonist Treatment Solution from the apical compartment of each filter and pipette 100 μL of each into the 96-well plate.
Analyze each 96-well plate in a Tecan Spectra Fluor Plus using Magellan at 485 and 535 nm.
(§11) Cells: Caco-2 cells passage 40-60 grown on Transwell® plates for 21-28 days
(§12) SEQ ID NO: 70 is a 6-mer peptide tight junction agonist having the sequence FCIGRL. See US patent publication US 2005/0059593 A1. In the following tables + indicates attenuation of the effects of the tight junction agonist were observed and − indicates no attenuation of the effects of the tight junction agonist were observed.

[2] = test system: CaCo2 monolayers (tight junctions); assay: Inhibition of agonist-induced decrease in trans epithelial electric resistance (TEER) of CaCo2 monolayers; settings: inhibition of the reduction in TEER induced by SEQ ID NO:70 (FCIGRL); CaCo2 monolayers
Excerpt: as §1, §2, §3, §4, §5, §6
Using the MilliCell®-ERS instrument (Millipore), measure and record the transepithelial electrical resistance (TEER) across each filter and record.
as §7, §8, §9, §10
At t=30, 60, 120 and 180 minutes, measure and record the transepithelial electrical resistance (TEER) across each filter using the MilliCell-ERS instrument.
as §11, §12

Substance	Reduced LY Permeability [1]	Prevented TEER Reduction [2]
His-Pro-Gly (HPG; Tight junction antagonist) [SEQ ID NO: 18]	+	+
Ile-Pro-Gly (IPG; Tight junction antagonist) [SEQ ID NO: 31]	+	+
Leu-Pro-Gly (LPG; Tight junction antagonist) [SEQ ID NO: 25]	+	+
Leu-Val-Gln-Pro-Gly (LVQPG; Tight junction antagonist) [SEQ ID NO: 4]	+	+
Lys-Pro-Gly (KPG; Tight junction antagonist) [SEQ ID NO: 24]	+	+
Met-Pro-Gly (MPG; Tight junction antagonist) [SEQ ID NO: 26]	+	+
Phe-Pro-Gly (FPG; Tight junction antagonist) [SEQ ID NO: 21]	+	+
Pro-Pro-Gly (PPG; Tight junction antagonist) [SEQ ID NO: 33]	−	−
Ser-Pro-Gly (SPG; Tight junction antagonist) [SEQ ID NO: 28]	+	+
Thr-Pro-Gly (TPG; Tight junction antagonist) [SEQ ID NO: 30]	+	−
Trp-Pro-Gly (WPG; Tight junction antagonist) [SEQ ID NO: 32]	+	+
Tyr-Pro-Gly (YPG; Tight junction antagonist) [SEQ ID NO: 29]	+	+
VLVQPG [SEQ ID NO: 3]	+	+
Val-Gln-Pro-Gly (VQPG; Tight junction antagonist) [SEQ ID NO: 5]	+	+
Val-Pro-Gly (VPG; Tight junction antagonist) [SEQ ID NO: 34]	+	−
